Laboratory results published in the supplement of paper PMC11061612.

Columns and labels:
Assay in all cases: Bliss excess, mean over the matrix (fraction); higher = more synergy
EW-1 (Ewing's Sarcoma) = test system: EW-1 (Ewing's Sarcoma)
Procedure, shortened: (§1)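 Bliss excess equals the observed combination effect minus the expected value EA + EB − EA·EB, where EA and EB are the effects of each agent alone. Combination Emax is the second-highest inhibition within the matrix. Inhibition was scaled from CellTiter-Glo 2.0 luminescence, with 0 set by vehicle wells and 1 by blank wells, after 72 hours of two-drug dosing of cells plated in 1536-well plates.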

[1] = test system: NCI-H2122 (Lung Adenocarcinoma)
Procedure, shortened: as §1

[2] = test system: MDA-MB-453 (Breast Carcinoma)
Procedure, shortened: as §1

[3] = test system: KGN (Other Solid Carcinomas)
Procedure, shortened: as §1

[4] = test system: EJM (Plasma Cell Myeloma)
Procedure, shortened: as §1

[5] = test system: A4-Fuk (B-Lymphoblastic Leukemia)
Procedure, shortened: as §1

SK-N-AS (Neuroblastoma) = test system: SK-N-AS (Neuroblastoma)
Procedure, shortened: as §1

[6] = test system: SW872 (Other Solid Carcinomas)
Procedure, shortened: as §1

[7] = test system: NCI-H522 (Lung Adenocarcinoma)
Procedure, shortened: as §1

[8] = test system: Mo-T (Other Blood Carcinomas)
Procedure, shortened: as §1

[9] = test system: ALL-SIL (T-Lymphoblastic Leukemia)
Procedure, shortened: as §1

[10] = test system: Ca-Ski (Cervical Carcinoma)
Procedure, shortened: as §1

[11] = test system: OE33 (Esophageal Adenocarcinoma)
Procedure, shortened: as §1

[12] = test system: DU-145 (Prostate Carcinoma)
Procedure, shortened: as §1

[13] = test system: SKN (Other Solid Carcinomas)
Procedure, shortened: as §1

[14] = test system: MOG-G-UVW (Low Grade Glioma)
Procedure, shortened: as §1

[15] = test system: HCC2998 (Colorectal Carcinoma)
Procedure, shortened: as §1

COLO-679 (Melanoma) = test system: COLO-679 (Melanoma)
Procedure, shortened: as §1

[16] = test system: HCC1500 (Breast Carcinoma)
Procedure, shortened: as §1

Row | SMILES | Bliss excess (EW-1 (Ewing's Sarcoma)) | Bliss excess [1] | Bliss excess [2] | Bliss excess [3] | Bliss excess [4] | Bliss excess [5] | Bliss excess (SK-N-AS (Neuroblastoma)) | Bliss excess [6] | Bliss excess [7] | Bliss excess [8] | Bliss excess [9] | Bliss excess [10] | Bliss excess [11] | Bliss excess [12] | Bliss excess [13] | Bliss excess [14] | Bliss excess [15] | Bliss excess (COLO-679 (Melanoma)) | Bliss excess [16]
1 | CC1(C)CCC(CN2CCN(c3ccc(C(=O)NS(=O)(=O)c4ccc(NCC5CCOCC5)c([N+](=O)[O-])c4)c(Oc4cnc5[nH]ccc5c4)c3)CC2)=C(c2ccc(Cl)cc2)C1 [Venetoclax] + C1CN(CCC1(C(=O)N[C@@H](CCO)C2=CC=C(C=C2)Cl)N)C3=NC=NC4=C3C=CN4 [Capivasertib] (first compound max 1 µM, 7x7, partner max 3 µM) | -0.0019 | 0.0256 | -0.0022 | -0.0592 | 0.0067 | -0.035 | -0.0237 | -0.0588 | -0.0292 | -0.013 | -0.0261 | -0.0153 | -0.0059 | -0.0493 | -0.0299 | -0.0404 | -0.0133 | -0.0357 | 0.0321
2 | CCc1c2c(nc3ccc(O)cc13)-c1cc3c(c(=O)n1C2)COC(=O)[C@]3(O)CC [SN-38] + O=C(c1cc(Cc2n[nH]c(=O)c3ccccc23)ccc1F)N1CCN(C(=O)C2CC2)CC1 [Olaparib] (first compound max 0.3 µM, 7x7, partner max 10 µM) | 0.0642 | – | 0.0456 | 0.0691 | 0.0404 | 0.0164 | 0.096 | 0.0634 | 0.0909 | 0.0236 | 0.0795 | 0.0458 | 0.0383 | 0.0282 | 0.0246 | 0.036 | – | 0.005 | 0.051
3 | CC1(C)CCC(CN2CCN(c3ccc(C(=O)NS(=O)(=O)c4ccc(NCC5CCOCC5)c([N+](=O)[O-])c4)c(Oc4cnc5[nH]ccc5c4)c3)CC2)=C(c2ccc(Cl)cc2)C1 [Venetoclax] + Cn1cnc2c(F)c(Nc3ccc(Br)cc3Cl)c(C(=O)NOCCO)cc21 [Selumetinib] (first compound max 1 µM, 7x7, partner max 3 µM) | -0.0483 | 0.0375 | -0.0284 | -0.0406 | -0.006 | 0.0163 | 0.0083 | -0.0158 | -0.0215 | 0.021 | 0.0035 | -0.0038 | -0.0192 | -0.0121 | -0.0664 | 0.0564 | -0.0065 | -0.0203 | -0.023
4 | COc1cccc2c1C(=O)c1c(O)c3c(c(O)c1C2=O)C[C@@](O)(C(=O)CO)C[C@@H]3O[C@H]1C[C@H](N)[C@H](O)[C@H](C)O1 [Doxorubicin] + Cc1cc2ncnn2cc1Nc1ncc2c(n1)n(C1CCOCC1)c(=O)n2C [AZD7648] (first compound max 1 µM, 7x7, partner max 10 µM) | 0.126 | 0.0669 | 0.0432 | 0.0694 | 0.0833 | -0.018 | 0.0664 | 0.0299 | 0.0072 | 0.0096 | 0.0857 | 0.0498 | 0.0114 | 0.0052 | 0.0231 | 0.101 | 0.0344 | 0.0178 | 0.0605
5 | COc1cccc(OCCCN)c1-c1cc(Nc2cnc(C#N)cn2)n[nH]1 [Prexasertib] + O=C(c1cc(Cc2n[nH]c(=O)c3ccccc23)ccc1F)N1CCN(C(=O)C2CC2)CC1 [Olaparib] (first compound max 1 µM, 7x7, partner max 10 µM) | -0.0144 | -0.0471 | -0.128 | -0.031 | -0.0434 | 0.0189 | -0.0412 | -0.018 | -0.0491 | 0.0066 | -0.0222 | -0.0243 | -0.0925 | -0.0144 | -0.0209 | -0.0035 | -0.0432 | -0.0407 | -0.004
6 | CC1(C)CCC(CN2CCN(c3ccc(C(=O)NS(=O)(=O)c4ccc(NCC5CCOCC5)c([N+](=O)[O-])c4)c(Oc4cnc5[nH]ccc5c4)c3)CC2)=C(c2ccc(Cl)cc2)C1 [Venetoclax] + Cc1cc2ncnn2cc1Nc1ncc2c(n1)n(C1CCOCC1)c(=O)n2C [AZD7648] (first compound max 1 µM, 7x7, partner max 10 µM) | -0.008 | 0.0311 | -0.0037 | -0.0339 | 0.0292 | -0.0185 | -0.0485 | -0.0599 | -0.0232 | 0.0426 | -0.0022 | -0.0061 | -0.0449 | -0.0166 | -0.172 | -0.0482 | -0.0314 | -0.0363 | 0.0586
7 | COc1cccc(OCCCN)c1-c1cc(Nc2cnc(C#N)cn2)n[nH]1 [Prexasertib] + C[C@@H]1COCCN1C2=NC(=NC(=C2)C3(CC3)[S@](=N)(=O)C)C4=C5C=CNC5=NC=C4 [AZD6738] (first compound max 1 µM, 7x7, partner max 10 µM) | -0.0158 | -0.0262 | -0.0036 | -0.0399 | -0.044 | -0.0602 | -0.011 | 0.01 | 0.0392 | -0.0463 | -0.0175 | -0.0134 | -0.0334 | -0.0844 | -0.02 | 0.0317 | 0.0211 | -0.0836 | 0.0568
8 | CC(=O)Nc1cccc(-n2c(=O)n(C3CC3)c(=O)c3c(Nc4ccc(I)cc4F)n(C)c(=O)c(C)c32)c1 [Trametinib] + Cc1nc(-c2cn3c(n2)-c2ccc(-c4cnn(C(C)(C)C(N)=O)c4)cc2OCC3)n(C(C)C)n1 [Taselisib] (first compound max 1 µM, 7x7, partner max 10 µM) | 0.038 | 0.0862 | -0.0279 | 0.0972 | 0.142 | 0.127 | 0.0104 | 0.0847 | 0.0504 | 0.142 | 0.267 | 0.184 | 0.17 | 0.0241 | -0.0353 | -0.0446 | 0.0408 | -0.0331 | 0.0452
9 | COc1cccc(OCCCN)c1-c1cc(Nc2cnc(C#N)cn2)n[nH]1 [Prexasertib] + Cc1cc2ncnn2cc1Nc1ncc2c(n1)n(C1CCOCC1)c(=O)n2C [AZD7648] (first compound max 1 µM, 7x7, partner max 10 µM) | -0.0217 | -0.0289 | -0.0143 | -0.0033 | -0.0334 | -0.0989 | -0.0015 | 0.0191 | -0.0005 | 0.0159 | -0.0258 | -0.0159 | 0.0061 | -0.0381 | -0.0238 | -0.0264 | -0.0053 | -0.0157 | 0.0354
10 | CC1(C)CCC(CN2CCN(c3ccc(C(=O)NS(=O)(=O)c4ccc(NCC5CCOCC5)c([N+](=O)[O-])c4)c(Oc4cnc5[nH]ccc5c4)c3)CC2)=C(c2ccc(Cl)cc2)C1 [Venetoclax] + C[C@@H](Nc1cc(F)cc(F)c1)c1cc(C(=O)N(C)C)cc2c(=O)cc(N3CCOCC3)oc12 [AZD8186] (first compound max 1 µM, 7x7, partner max 3 µM) | -0.001 | 0.0055 | -0.0313 | -0.0296 | 0.0077 | -0.0046 | -0.0347 | -0.0247 | -0.0273 | 0.0015 | 0.0344 | -0.0259 | -0.0169 | -0.0239 | -0.023 | -0.0111 | -0.0317 | 0.0001 | 0.0626
11 | CC1(C)CCC(CN2CCN(c3ccc(C(=O)NS(=O)(=O)c4ccc(NCC5CCOCC5)c([N+](=O)[O-])c4)c(Oc4cnc5[nH]ccc5c4)c3)CC2)=C(c2ccc(Cl)cc2)C1 [Venetoclax] + CN(C)CCCOc1ccc(-c2ccc3ncc4c(c3c2)n(C2CCOCC2)c(=O)n4C)cn1 [AZD0156] (first compound max 1 µM, 7x7, partner max 1 µM) | 0.0002 | 0.0112 | -0.0225 | -0.0172 | -0.0047 | 0.0004 | -0.0469 | 0.0025 | -0.0134 | -0.0469 | -0.0012 | 0.0221 | -0.033 | -0.0261 | -0.0205 | 0.0408 | -0.0292 | -0.0328 | 0.0766
12 | CC1(C)CCC(CN2CCN(c3ccc(C(=O)NS(=O)(=O)c4ccc(NCC5CCOCC5)c([N+](=O)[O-])c4)c(Oc4cnc5[nH]ccc5c4)c3)CC2)=C(c2ccc(Cl)cc2)C1 [Venetoclax] + C[C@@H]1COCCN1C2=NC(=NC(=C2)C3(CC3)[S@](=N)(=O)C)C4=C5C=CNC5=NC=C4 [AZD6738] (first compound max 1 µM, 7x7, partner max 10 µM) | -0.0224 | -0.0137 | -0.0492 | -0.0601 | -0.0176 | 0.0028 | -0.0222 | 0.0001 | -0.0099 | -0.0373 | -0.0217 | -0.006 | -0.0549 | -0.0097 | -0.0654 | -0.0672 | -0.0423 | -0.0242 | 0.0413
13 | COc1cccc(OCCCN)c1-c1cc(Nc2cnc(C#N)cn2)n[nH]1 [Prexasertib] + C=CCn1c(=O)c2cnc(Nc3ccc(N4CCN(C)CC4)cc3)nc2n1-c1cccc(C(C)(C)O)n1 [AZD1775] (first compound max 1 µM, partner max 1 µM) | 0.0461 | 0.0341 | 0.0702 | 0.0615 | 0.0228 | -0.0205 | 0.0218 | 0.144 | 0.143 | 0.0023 | 0.0648 | 0.0816 | 0.0352 | 0.0361 | 0.0515 | 0.0656 | 0.0716 | 0.0059 | 0.146
14 | CC1(C)CCC(CN2CCN(c3ccc(C(=O)NS(=O)(=O)c4ccc(NCC5CCOCC5)c([N+](=O)[O-])c4)c(Oc4cnc5[nH]ccc5c4)c3)CC2)=C(c2ccc(Cl)cc2)C1 [Venetoclax] + CCN(CCO)CCCOc1ccc2c(Nc3cc(CC(=O)Nc4cccc(F)c4)[nH]n3)ncnc2c1 [AZD2811] (first compound max 1 µM, 7x7, partner max 1 µM) | 0.0317 | -0.0579 | -0.0169 | -0.038 | 0.0261 | 0.0781 | -0.0071 | -0.0179 | 0.0172 | -0.125 | -0.0059 | 0.0738 | -0.0188 | -0.0375 | 0.0005 | -0.0186 | -0.0403 | -0.0608 | 0.0905
